Data as given in patent US8399024B2, “Water-insoluble medicine” (Ebara Corporation, priority 2006, dated 2013).
Counter-ions that a name gives are not always drawn. Like-named read-outs stand apart in the source and are kept apart here.

How the values were obtained:
[1] = system: human gastric cancer H-23 (moderately differentiated-type adenocarcinoma); experiment: Anti-tumor effect using nude mice-transplanted human tumor (Example 3); details: 60 mg/kg i.v. d7, d11, d14
[2] = Influence of the drug on the host: change in weight and symptoms (Example 3); format: in vivo, BALB/cAJcl-nu nude mouse; details: 60 mg/kg i.v. d7, d11, d14
Protocol: The experiment was ended after 4 weeks from the starting day of administration. The tumor cell diameter was measured twice a week, and the weight was measured at the time of administration, so as to monitor the state of tumor cell proliferation and effect of drug administration, as well as any other physical changes. The mice were kept in a small vinyl isolator throughout the experiment, except for when they were moved to a clean bench through a sleeve to perform tumor cell transplantation, administration or weight measurement.
The influence of the drug on the host was evaluated by considering the change in weight and the expression of symptoms.

[3] = system: human gastric cancer H-23 (moderately differentiated-type adenocarcinoma); experiment: Anti-tumor effect using nude mice-transplanted human tumor (Example 2); format: in vivo, BALB/cAJcl-nu nude mouse; details: 60 mg/kg i.v. q4d×4, final day d35
MCF-7 tumor cells = experiment: Cytotoxicity test, viable cell count with Cell Counting Kit-8 (WST-8); format: cell-based; details: read-out: 50% inhibiting activity
Protocol: Ellipticine which had been size-reduced by laser beam irradiation (concentration: 2 μg/ml) was diluted with the below-mentioned culturing solution, and test samples having concentrations of 1 μg/ml, 0.5 μg/ml, 0.25 μg/ml and 0.125 μg/ml were prepared. MCF-7 (MEM-culture medium) and L-1210 (RPMI-1640 culture medium) tumor cells were used as target cells. The cytotoxicity was evaluated by counting the number of viable cells following 24 hours of culturing, using Cell Counting Kit-8. More specifically, WST-8 (U.S. Pat. No. 2,757,348) as an indicate for dehydrogenase activities was used, and the color at 450 nm was evaluated. Viability(%)=(Asamples−Ablank)/(Ano-samples−Ablank) 100%
(§1) The cytotoxicity of the SN-38 nano particles was evaluated by counting the number of viable cells following 24 hours of culturing in the same manner as in the cytotoxicity test of ellipticine as described in item (3-4) of Example 1. The 50% inhibiting activity for MCF-7 cells was 100 nM.
as §1, with “10-hydroxy-camptothecin” for “SN-38”, “72” for “24”

CCc1c2c(nc3ccc(OC(=O)N4CCC(N5CCCCC5)CC4)cc13)-c1cc3c(c(=O)n1C2)COC(=O)[C@]3(O)CC [CPT-11, irinotecan hydrochloride]
evaluation of max. IR ([1]; d18): effective (IR≧58%)
max. IR ([1]; d18): 69.0%
drug effect evaluation ([1]; d21): non-effective (IR of below 58%)
drug effect evaluation ([1]; final day d35): non-effective (IR of below 58%)
body state [2]: not good
maximum weight loss (max. wt. loss) [2]: 0.4%
drug effect evaluation [3]: non-effective (IR of below 58%)

CC[C@@]1(O)C(=O)OCc2c1cc1n(c2=O)Cc2cc3cc(O)ccc3nc2-1 [DMSO solution of 10-hydroxy-camptothecin, 10-hydroxy-camptothecin]
IC50 (MCF-7 tumor cells; MCF-7, 72 hours of culturing): 100 nM

CCc1c2c(nc3ccc(O)cc13)-c1cc3c(c(=O)n1C2)COC(=O)[C@]3(O)CC [DMSO solution of SN-38, 7-ethyl-10-hydroxycamptothecin]
IC50 (MCF-7 tumor cells; MCF-7, 24 hours of culturing): 500 nM
